The nature of this series: Human HepG2 cell viability assay in 384 well format. The series is classed as toxicity, cell-based. The arrangement: dose 125 nL, time 70.5 hour; cytotoxicity at 70.5 h: concentration not given beside the values. Conditions: HepG2 cells, read-out: Inhibition.

Drawing on ChEMBL document CHEMBL3507680, “University of Dundee, Gates Library screen for HepG2 cell viability”, this text covers cytotoxicity for 95 molecules.

Regarding `O=C(C1CCC1)N1CCC2(CC1)OCCO2`, the cytotoxicity at 70.5 h is -7.76%. The result for `Cc1ccccc1C1(CNC(=O)NCCc2nnc3n2CCC3)CC1` reads -17.5%; that for `Cc1nn(C)c(C)c1C(=O)N1CCOCC1CC(=O)c1ccco1` (stereo not given), -18.7%. Take `COCCOCC(=O)Nc1ccc(C)cc1F`: the cytotoxicity at 70.5 h was -7.66%. With `CCn1cnnc1C1CCN(C(=O)c2cnc3ccccc3n2)CC1` the figure was -16.4%; with `CN(CCc1cccs1)C1CCCN(Cc2noc(C3CC3)n2)C1` (stereo not given), 8.79%.

In the case of `CC(C)c1nnc2n1CC(CNCc1ccncc1)CC2` (stereo not given), the cytotoxicity at 70.5 h is -3.85%. With `CN(Cc1cnn(C)c1)C(=O)NC1CCS(=O)(=O)C1` (stereo not given) the figure was -6.09%; with `c1cc(C2CCCN2Cc2nnnn2C2CC2)cs1` (stereo not given), -8.27%; with `Cn1cc(CCNC(=O)NC2CCS(=O)(=O)C2)cn1` (stereo not given), -1.53%. Turning to `CNC(=O)CCNC(=O)c1cccc(Cn2nc(C)cc2C)c1`, the cytotoxicity at 70.5 h was -3.48%. As to `Cc1nn(C)c(N2CCOCC2)c1CNC(C)c1cccnc1` (stereo not given), the cytotoxicity at 70.5 h is -8.78%. For `Cc1ncc(CNC(=O)Nc2cc(C(F)(F)F)c[nH]c2=O)s1`, the cytotoxicity at 70.5 h came to 0.0851%. For `CN(C)S(=O)(=O)N1CCC(Oc2ccc(C#N)cc2)CC1`, the cytotoxicity at 70.5 h is -4.56%. The result for `Cc1cc(C)n(Cc2ccc(C(=O)NCCN3CCOCC3)cc2)n1` reads 1.27%; that for `CCc1nnc2n1CCN(C(=O)c1cnc3ccccc3n1)C2`, -4.54%; that for `CC(CN1CCN(C)CC1)NC(=O)c1cc(Cl)c2c(c1)OCO2` (stereo not given), -0.705%.

Consider `CCc1nnc2n1CCN(C(=O)c1ccc3nc(C)c(C)nc3c1)C2`, for which the cytotoxicity at 70.5 h is 1.25%.

With `CCc1nnc2n1CCN(C(=O)c1ccc3[nH]cnc3c1)C2`, the cytotoxicity at 70.5 h came out at 4.85%. For the molecule `COc1ccc(OC)c(CNCCc2cc(F)cc3c2OCOC3)c1`, the cytotoxicity at 70.5 h worked out at 9.35%. As to `O=C(CCc1cscn1)NS(=O)(=O)c1ccc2ccccc2c1`, the cytotoxicity at 70.5 h was -5.17%. Consider `c1cc2c(cc1C1CCCN1Cc1nnnn1C1CC1)OCCO2` (stereo not given), for which the cytotoxicity at 70.5 h worked out at 13.7%. With `CC(C)c1n[nH]c(C2CN(C(=O)CCCn3cccn3)CCO2)n1` (stereo not given) the figure was -3.52%; with `CN(Cc1cnn(C)c1)C(=O)NC1CCC(O)CC1` (stereo not given), -7.28%.

As to `Cc1ccc(CNCC2CCc3nnc(C(C)C)n3C2)s1` (stereo not given), the cytotoxicity at 70.5 h is -6.69%. With `CC(C)c1nc(CN(C)C2CCN(Cc3nc(C4CC4)no3)C2)no1` (stereo not given) the figure was 12%; with `CN(C)CC(=O)N1CCc2onc(Cn3cccn3)c2C1`, -9.72%. On to `COCC1CC2(CCN(Cc3cccnc3)CC2)CN1C(C)C` (stereo not given), for which the cytotoxicity at 70.5 h is -7.91%. For `Cn1cc(-c2nnn3c2COC(CNCc2ccccn2)C3)cn1` (stereo not given), the cytotoxicity at 70.5 h came out at 14.6%. With `O=C(c1cccnc1)N1CCC2(CC1)CCN(Cc1ccccn1)C2=O` the figure was -9.02%; with `Cn1cc(-c2nnn3c2COC(CNCc2ccncc2)C3)cn1` (stereo not given), -2.68%. The result for `O=C(Cc1cccnc1)N1CCCC2(CCN(CC3CCOCC3)C2)C1` (stereo not given) reads 1.37%; that for `Cn1cccc1C(=O)N1CCN2C[C@H](Oc3cccnc3)C[C@H]2C1`, 21.7%. With `Cn1cc(-c2nnn3c2COC(CNC(=O)c2cccs2)C3)cn1` (stereo not given) the figure was 22.3%; with `Cn1cc(-c2nnn3c2COC(CNCc2cccnc2)C3)cn1` (stereo not given), 18.5%. Regarding `O=C(c1ccnnc1)N1CCN2C[C@H](Oc3cccnc3)C[C@H]2C1`, the cytotoxicity at 70.5 h was -0.791%. With `O=C(c1cnccn1)N1CCN2C[C@H](Oc3cccnc3)C[C@H]2C1` the figure was 4.06%; with `O=C(c1ccc[nH]1)N1CCC2(CC1)CC(Oc1cccnc1)CO2` (stereo not given), 25%. With `O=C(c1cnccn1)N1CCC2(CC1)CC(Oc1ccccc1)CO2` (stereo not given) the figure was 25.9%. The result for `Cc1ccoc1C(=O)N1C[C@H](OCC2CC2)[C@H]2OCCC[C@H]21` reads -0.347%; that for `COC[C@@H]1CC[C@H]2[C@H](CCN2S(=O)(=O)c2ccc(C)cc2)O1`, -4.48%. `CS(=O)(=O)N1CCC2(CC1)CC(CC(=O)NCC1CC1)c1ccccc12` (stereo not given): the cytotoxicity at 70.5 h came out at 5.79%. The result for `O=c1cc(Cn2cncn2)nc2n1CCCN(Cc1ccoc1)C2` reads -0.379%; that for `Cc1ccoc1C(=O)N1C[C@@H](OCC2CC2)[C@H]2OCCC[C@H]21`, -1.01%. As to `COCCN1C[C@@H]2[C@@H](OC)CCN(C(=O)c3cccc(OC)c3)[C@@H]2C1`, the cytotoxicity at 70.5 h amounted to 2%. With `Cc1ccc(CN2CCC3(CC2)C(=O)NCCN3CC2CC2)o1`, the cytotoxicity at 70.5 h came out at 8.52%. Turning to `CN1CCC2(CC1)CN(C(=O)c1cccnc1)Cc1ccccc12`, the cytotoxicity at 70.5 h amounted to 9.45%. On to `CC(=O)N1CC[C@H]2OCC[C@@H](C(=O)NCc3ccco3)[C@H]2C1`, for which the cytotoxicity at 70.5 h is -12.4%.

`CCCc1cc(NCCCC2CCOC2)n2nccc2n1` (stereo not given): the cytotoxicity at 70.5 h was -2.1%. The result for `CCc1ccc2nc(NCC(O)CO)cc(C)c2c1` (stereo not given) reads 1.81%.

For the molecule `N[C@@H]1c2ccccc2C2(CCN(c3ccc(C(F)(F)F)cn3)CC2)[C@H]1O`, the cytotoxicity at 70.5 h was -15.9%. With `CCC(NC(=O)CCCN1CCCCC1)c1cn2cccnc2n1` (stereo not given) the figure was -0.954%; with `C[C@@H]1CC[C@@H](C)N1C(=O)c1cc(COc2ccccc2)[nH]n1`, -0.483%; with `Nc1nc(CCNc2ncnc3c2CCN(C(=O)C2CC2)C3)cs1`, -11.6%. With `Cc1nc2c(C)cccc2cc1C(=O)N1CCC2(CCNCC2)CC1` the figure was -5.65%; with `O=C(NC1CC1)[C@H]1C[C@@H]2CCN(Cc3ccc4c(c3)OCO4)C[C@@H]2O1`, -12.5%. Turning to `O=C(NCC1CC1)[C@H]1C[C@@H]2CCN(Cc3ccc4c(c3)OCO4)C[C@@H]2O1`, the cytotoxicity at 70.5 h is -11.6%. Regarding `O=C(c1cocn1)N1C[C@H]2CCC[C@@]2(COc2ccccn2)C1`, the cytotoxicity at 70.5 h came out at 8.39%. With `Cc1noc(C)c1C(=O)N1C[C@@H]2COC[C@]2(COc2ccccn2)C1` the figure was 10.4%.

As to `Cc1cccc(CN2Cc3ccnn3CC(COCC3CC3)C2)n1` (stereo not given), the cytotoxicity at 70.5 h was 8.5%. With `O=C(c1ncccn1)N1C[C@H]2CCC[C@@]2(COc2ccccn2)C1` the figure was -6.17%; with `Cc1ccccc1CC(=O)N1C[C@@H]2COC[C@]2(CN(C)C)C1`, -6.68%; with `O=C([C@@H]1C[C@@H]2CCN(Cc3ccc4c(c3)OCO4)C[C@@H]2O1)N1CCCC1`, -11.1%.

`Cc1nc(CN2CCO[C@H]3[C@H](OCC(=O)N(C)C)CC[C@@H]32)cs1`: the cytotoxicity at 70.5 h is 17.3%.

On to `Cn1nccc1-c1nnn2c1COC(CNCc1nccs1)C2` (stereo not given), for which the cytotoxicity at 70.5 h came out at 0.565%. The result for `Cc1cccc(CN2CCCn3c(nnc3Cn3cccn3)C2)n1` reads 10.9%; that for `O=C1COC2(CCN(c3ncccn3)CC2)CN1Cc1ccccn1`, -5.98%. With `Cc1nnn2c1COC(CNCc1nccs1)C2` (stereo not given) the figure was 2.74%; with `CC(=O)N1CCC2(CCN(Cc3ccccn3)C2=O)C1` (stereo not given), 3.63%; with `O=C(C1CC=CC1)N1CCC2(CCN(Cc3ccccn3)C2=O)C1` (stereo not given), 5.7%. The result for `CC(C)N1CCOCC2(CCCN(C(=O)CCc3cccnc3)C2)C1` (stereo not given) reads -6.39%; that for `COc1cc(N2CCC3(CCCN(C(=O)c4cnccn4)C3)C2)ncn1` (stereo not given), 17%; that for `O=C(c1cccnc1)N1CCC2(CC1)CC(Oc1ccccc1)CO2` (stereo not given), 26.5%. As to `Cc1noc(C)c1CN1CCO[C@H]2CN(C(=O)C3CCOCC3)C[C@H]21`, the cytotoxicity at 70.5 h is -0.225%. The result for `c1cnc(N2CCOC3(CCN(CC4CCOC4)CC3)C2)nc1` (stereo not given) reads 2.18%; that for `O=C(c1cnccn1)N1CCCC2(CCN(c3ncccn3)C2)C1` (stereo not given), 4.46%. With `Cc1ccc(N2CCC3(CCN(C(=O)c4ccoc4)CC3)CC2)nn1` the figure was -4.56%; with `Cn1ccc(C(=O)N2C[C@H]3CCC[C@@]3(COCc3cccnc3)C2)n1`, -0.791%; with `CN1CC[C@H]2OCC[C@@H](C(=O)NCc3ccco3)[C@@H]2C1`, 9.03%. The result for `Cc1ccc(S(=O)(=O)N2CC[C@H]3CO[C@H](CN(C)C)[C@H]3C2)cc1` reads -6.81%; that for `CN1CCOCC2(CCCN(C(=O)c3ccc(-n4cccc4)cc3)C2)C1` (stereo not given), 9.26%. Regarding `Fc1cnc(N2CCCC3(COCCN(c4nccs4)C3)C2)nc1` (stereo not given), the cytotoxicity at 70.5 h is -12.2%. As to `Cc1ccc(C(=O)N2C[C@H]3CCC[C@@]3(COc3ccccn3)C2)nc1`, the cytotoxicity at 70.5 h was found to be 11.3%.

Consider `COCC1CC2(CCN(Cc3ccoc3)CC2)CN1C(C)C` (stereo not given), for which the cytotoxicity at 70.5 h was -9.47%. With `O=C(Nc1cccnc1)[C@H]1C[C@H]2OCC[C@H]2N(CC2CC2)C1` the figure was -14.8%; with `CCN(C)c1ncnc2c1CCN(Cc1ccsc1)CC2`, 0.529%. With `Cc1cccc(N2CCC3(CCCN(C(=O)c4cccnc4)C3)C2)n1` (stereo not given) the figure was 18.7%; with `Cc1cccc(N2CCC3(CCCN(C(=O)c4cccnc4)C3)CC2)n1`, 0.517%. As for `c1cnc(N2C[C@H]3CN(CC4CCOC4)C[C@H]3C2)nc1` (stereo not given in full), the cytotoxicity at 70.5 h is -4.56%. With `c1cnc(N2CCC3(CCN(CC4CCOCC4)CC3)C2)nc1` the figure was 0.659%; with `CN1CC(=O)N(c2ccccc2)CC12CCN(CC1CCOCC1)C2` (stereo not given), 22.5%; with `Cc1cccc(N2CCC3(CCN(C(=O)c4cccnc4)CC3)C2)n1`, 14%. With `c1cnc(N2CCC3(COCCN(CC4CCOCC4)C3)C2)nc1` (stereo not given) the figure was 3.27%; with `O=c1cc(Cn2cncn2)nc2n1CCCN(CCN1CCCC1)C2`, -9.08%.

Take `Cc1nc(CO[C@@H]2CC[C@H]3[C@H]2OCCN3Cc2cccnc2)cs1`: the cytotoxicity at 70.5 h was determined as 14.5%.
